Where “and” joins values, the source holds several entries; their conditions need not be identical. Equal entries are not always repeated.
Experiment: molar heat capacity at constant pressure
Conditions: 101.33 kPa, Crystal 2, Small (less than 1 g) adiabatic calorimetry

O=S(=O)([O-])[O-].[Sr+2] [sulfuric acid, strontium salt (1:1)]
Conditions	molar heat capacity at constant pressure
145.71 K	68.41 J/K/mol
145.74 K	68.47 J/K/mol
146.11 K	68.55 J/K/mol
148.91 K	69.29 J/K/mol
148.95 K	69.42 J/K/mol
149.31 K	69.49 J/K/mol
150 K	69.86 J/K/mol
152.12 K	70.28 J/K/mol
152.16 K	70.25 J/K/mol
152.52 K	70.41 J/K/mol
155.34 K	71.05 J/K/mol
155.38 K	71.08 J/K/mol
155.74 K	71.27 J/K/mol
158.56 K	71.97 J/K/mol
158.6 K	72 J/K/mol
158.97 K	72.09 J/K/mol
160 K	72.51 J/K/mol
161.8 K	72.79 J/K/mol
161.84 K	72.83 J/K/mol
162.22 K	72.92 J/K/mol
165.05 K	73.58 J/K/mol
165.09 K	73.59 J/K/mol
165.46 K	73.73 J/K/mol
168.3 K	74.28 J/K/mol
168.34 K	74.31 J/K/mol
168.72 K	74.49 J/K/mol
170 K	74.99 J/K/mol
171.55 K	75.15 J/K/mol
171.6 K	75.19 J/K/mol
171.99 K	75.27 J/K/mol
174.82 K	75.93 J/K/mol
174.86 K	75.97 J/K/mol
175.25 K	76.02 J/K/mol
178.09 K	76.68 J/K/mol
178.13 K	76.74 J/K/mol
178.53 K	76.77 J/K/mol
180 K	77.33 J/K/mol
181.37 K	77.42 J/K/mol
181.41 K	77.48 J/K/mol
181.81 K	77.53 J/K/mol
184.66 K	78.14 J/K/mol
184.69 K	78.22 J/K/mol
185.09 K	78.29 J/K/mol
187.96 K	78.91 J/K/mol
187.99 K	78.94 J/K/mol
188.38 K	78.97 J/K/mol
190 K	79.65 J/K/mol
191.26 K	79.72 J/K/mol
191.28 K	79.71 J/K/mol
191.67 K	79.8 J/K/mol
194.56 K	80.51 J/K/mol and 80.47 J/K/mol
194.96 K	80.64 J/K/mol
197.83 K	81.24 J/K/mol
197.85 K	81.22 J/K/mol
198.25 K	81.33 J/K/mol
200 K	81.87 J/K/mol
201.09 K	81.92 J/K/mol
201.14 K	81.8 J/K/mol
201.53 K	81.9 J/K/mol
204.35 K	82.54 J/K/mol
204.42 K	82.41 J/K/mol
204.81 K	82.55 J/K/mol
207.6 K	83.18 J/K/mol
207.7 K	82.95 J/K/mol
208.08 K	83.16 J/K/mol
210 K	83.8 J/K/mol
210.83 K	83.81 J/K/mol
210.94 K	83.69 J/K/mol
211.34 K	83.83 J/K/mol
214.05 K	84.44 J/K/mol
214.18 K	84.34 J/K/mol
214.58 K	84.5 J/K/mol
217.26 K	85.04 J/K/mol
217.41 K	84.95 J/K/mol
217.8 K	85.11 J/K/mol
220 K	85.76 J/K/mol
220.45 K	85.67 J/K/mol
220.61 K	85.61 J/K/mol
221.01 K	85.74 J/K/mol
223.62 K	86.31 J/K/mol
223.8 K	86.22 J/K/mol
224.21 K	86.36 J/K/mol
226.78 K	86.94 J/K/mol
226.98 K	86.85 J/K/mol
227.39 K	86.96 J/K/mol
229.93 K	87.58 J/K/mol
230 K	87.75 J/K/mol
230.13 K	87.48 J/K/mol
230.55 K	87.57 J/K/mol
233.05 K	88.24 J/K/mol
233.27 K	88.13 J/K/mol
233.75 K	88.27 J/K/mol
236.17 K	88.83 J/K/mol
236.39 K	88.63 J/K/mol
236.88 K	88.89 J/K/mol
239.32 K	89.46 J/K/mol
239.54 K	89.39 J/K/mol
239.99 K	89.5 J/K/mol
240 K	89.75 J/K/mol
242.4 K	90.05 J/K/mol
242.63 K	89.95 J/K/mol
243.09 K	90.06 J/K/mol
245.47 K	90.64 J/K/mol
245.71 K	90.56 J/K/mol
246.17 K	90.67 J/K/mol
248.53 K	91.22 J/K/mol
248.77 K	91.15 J/K/mol
249.24 K	91.23 J/K/mol
250 K	91.7 J/K/mol
251.58 K	91.85 J/K/mol
251.81 K	91.78 J/K/mol
252.29 K	91.85 J/K/mol
254.61 K	92.43 J/K/mol
254.84 K	92.37 J/K/mol
255.33 K	92.47 J/K/mol
257.63 K	93 J/K/mol
257.87 K	92.94 J/K/mol
258.36 K	93.06 J/K/mol
260 K	93.66 J/K/mol
260.65 K	93.58 J/K/mol
260.88 K	93.56 J/K/mol
261.38 K	93.65 J/K/mol
263.66 K	94.16 J/K/mol
263.89 K	94.13 J/K/mol
264.39 K	94.26 J/K/mol
266.66 K	94.77 J/K/mol
266.89 K	94.7 J/K/mol
267.4 K	94.85 J/K/mol
269.66 K	95.39 J/K/mol
269.89 K	95.3 J/K/mol
270 K	95.59 J/K/mol
270.4 K	95.47 J/K/mol
272.64 K	95.96 J/K/mol
272.87 K	95.81 J/K/mol
273.15 K	96.15 J/K/mol
273.39 K	95.92 J/K/mol
275.63 K	96.38 J/K/mol
275.85 K	96.25 J/K/mol
276.38 K	96.39 J/K/mol
278.61 K	96.87 J/K/mol
278.83 K	96.75 J/K/mol
279.36 K	96.87 J/K/mol
280 K	97.3 J/K/mol
281.59 K	97.38 J/K/mol
281.8 K	97.23 J/K/mol
282.43 K	97.36 J/K/mol
284.56 K	97.83 J/K/mol
284.76 K	97.73 J/K/mol
285.4 K	97.91 J/K/mol
287.65 K	98.39 J/K/mol
287.81 K	98.24 J/K/mol
288.36 K	98.43 J/K/mol
290 K	98.96 J/K/mol
290.61 K	98.91 J/K/mol
290.76 K	98.75 J/K/mol
291.32 K	98.96 J/K/mol
293.57 K	99.37 J/K/mol
293.71 K	99.22 J/K/mol
294.28 K	99.43 J/K/mol
296.52 K	99.84 J/K/mol
296.64 K	99.69 J/K/mol
297.22 K	99.88 J/K/mol
298.15 K	100.3 J/K/mol
299.46 K	100.34 J/K/mol
299.56 K	100.14 J/K/mol
300 K	100.59 J/K/mol
300.17 K	100.26 J/K/mol
302.4 K	100.79 J/K/mol
302.48 K	100.58 J/K/mol
303.1 K	100.8 J/K/mol
305.33 K	101.19 J/K/mol
305.39 K	101 J/K/mol
306.03 K	101.22 J/K/mol
308.26 K	101.58 J/K/mol
308.3 K	101.41 J/K/mol
308.95 K	101.59 J/K/mol
310 K	102.03 J/K/mol
311.18 K	102.01 J/K/mol
311.19 K	101.81 J/K/mol
311.87 K	101.99 J/K/mol
314.08 K	102.29 J/K/mol
314.09 K	102.44 J/K/mol
314.78 K	102.4 J/K/mol
316.97 K	102.72 J/K/mol
316.99 K	102.82 J/K/mol
317.69 K	102.79 J/K/mol
319.85 K	103.14 J/K/mol
319.89 K	103.15 J/K/mol
320 K	103.44 J/K/mol
320.59 K	103.18 J/K/mol
322.73 K	103.57 J/K/mol
322.78 K	103.57 J/K/mol

Source: the NIST ThermoML archive (doi:10.1016/j.tca.2013.05.017)
